In ChEMBL document CHEMBL5647694, “Novel orally bioavailable EZH1/2 dual inhibitors with greater antitumor efficacy than an EZH2 selective inhibitor” (Cancer Sci, 2017):

Legend:
[1] = target: Ephrin type-B receptor 1 (Homo sapiens) (UniProt P54762); experiment: Inhibition of N-terminal GST-fused human EPHB1 cytoplasmic domain (578 to 984 residues) expressed in baculovirus-infected Sf21 cells using Blk/Lyntide as substrate at 1 uM in presence of ATP by Mobility shift assay
[2] = target: Macrophage colony-stimulating factor 1 receptor (Homo sapiens) (UniProt P07333); experiment: Inhibition of N-terminal GST-fused human FMS cytoplasmic domain (538 to 972 residues) expressed in baculovirus-infected Sf21 cells using Srctide as substrate at 1 uM in presence of ATP by Mobility shift assay
[3] = target: Non-receptor tyrosine-protein kinase TNK1 (Homo sapiens) (UniProt Q13470); experiment: Inhibition of N-terminal GST-tagged human TNK1 catalytic domain (106 to 390 residues) expressed in baculovirus-infected Sf21 cells using CSKtide as substrate at 1 uM in presence of ATP by Mobility shift assay
[4] = target: AMPK alpha2/beta1/gamma1 (Homo sapiens) (UniProt P54646+P54619+Q9Y478); experiment: Inhibition of N-terminal GST-tagged full-length human AMPK alpha2 (1 to 552 residues)/N-terminal GST-tagged human AMPK beta1 (1 to 270 residues)/N-terminal GST-tagged human AMPK gamma1 (1 to 331 residues) expressed in baculovirus-infected Sf21 cells using SAMS peptide as substrate at 1 uM in presence of ATP by Mobility shift assay
[5] = target: Aurora kinase A/Targeting protein for Xklp2 (Homo sapiens) (UniProt O14965+Q9ULW0); experiment: Inhibition of N-terminal GST-fused full length human AurA (1 to 403 residues)/TPX2 expressed in baculovirus-infected Sf21 cells using Kemptide as substrate at 1 uM in presence of ATP by Mobility shift assay
[6] = target: Calcium/calmodulin-dependent protein kinase type II subunit delta (Homo sapiens) (UniProt Q13557); experiment: Inhibition of N-terminal GST-tagged full length human CAMK2d (1 to 478 residues) expressed in baculovirus-infected Sf21 cells using GS peptide as substrate at 1 uM in presence of ATP by Mobility shift assay
[7] = target: Cyclin-dependent kinase 2/cyclin E1 (Homo sapiens) (UniProt P24864+P24941); experiment: Inhibition of N-terminal GST-tagged full length human CDK2 (1 to 298 residues)/N-terminal GST-tagged human CyclinE1 (1 to 410 residues) expressed in baculovirus-infected Sf21 cells using Modified Histone H1 as substrate at 1 uM in presence of ATP by Mobility shift assay
[8] = target: Casein kinase I isoform gamma-1 (Homo sapiens) (UniProt Q9HCP0); experiment: Inhibition of N-terminal GST-fused full length human CK1gamma1 (1 to 422 residues) expressed in baculovirus expression system using CKtide as substrate at 1 uM in presence of ATP by Mobility shift assay
[9] = target: Casein kinase I isoform delta (Homo sapiens) (UniProt P48730); experiment: Inhibition of N-terminal GST-fused human CK1delta catalytic domain (1 to 294 residues) expressed in Escherichia coli expression system using CKtide as substrate at 1 uM in presence of ATP by Mobility shift assay
[10] = target: Dual specificity tyrosine-phosphorylation-regulated kinase 1B (Homo sapiens) (UniProt Q9Y463); experiment: Inhibition of N-terminal GST-fused full length human DYRK1B (1 to 629 residues) expressed in baculovirus expression system using DYRKtide-F as substrate at 1 uM in presence of ATP by Mobility shift assay
[11] = target: Glycogen synthase kinase-3 beta (Homo sapiens) (UniProt P49841); experiment: Inhibition of N-terminal GST-fused full length human GSK3-beta (1 to 420 residues) expressed in baculovirus expression system using CREBtide-p as substrate at 1 uM in presence of ATP by Mobility shift assay
[12] = target: Mitogen-activated protein kinase 10 (Homo sapiens) (UniProt P53779); experiment: Inhibition of N-terminal GST-fused full length human JNK3 (1 to 426 residues) expressed in Escherichia coli expression system using Modified ERKtide as substrate at 1 uM in presence of ATP by Mobility shift assay
[13] = target: Ribosomal protein S6 kinase alpha-5 (Homo sapiens) (UniProt O75582); experiment: Inhibition of N-terminal GST-fused full length human MSK1 (1 to 802 residues) expressed in baculovirus expression system using Crosstide as substrate at 1 uM in presence of ATP by Mobility shift assay
[14] = target: Serine/threonine-protein kinase 24 (Homo sapiens) (UniProt Q9Y6E0); experiment: Inhibition of N-terminal GST-fused full length human MST3 (1 to 431 residues) expressed in baculovirus expression system using Moesin-derived peptide as substrate at 1 uM in presence of ATP by Mobility shift assay
[15] = target: Serine/threonine-protein kinase Nek7 (Homo sapiens) (UniProt Q8TDX7); experiment: Inhibition of N-terminal GST-fused full length human NEK7 (1 to 302 residues) expressed in baculovirus expression system using CDK7 peptide as substrate at 1 uM in presence of ATP by Mobility shift assay
[16] = target: Serine/threonine-protein kinase Nek9 (Homo sapiens) (UniProt Q8TD19); experiment: Inhibition of N-terminal GST-fused truncated human NEK9 (1 to 346, 733 to 979 residues) expressed in baculovirus expression system using CDK7 peptide as substrate at 1 uM in presence of ATP by Mobility shift assay
[17] = target: Protein kinase C beta type (Homo sapiens) (UniProt P05771); experiment: Inhibition of N-terminal GST-fused human full length PKC-beta1 (1 to 671 residues ) expressed in baculovirus expression system using PKC peptide as substrate at 1 uM in presence of ATP by Mobility shift assay
[18] = target: Serine/threonine-protein kinase SIK2 (Homo sapiens) (UniProt Q9H0K1); experiment: Inhibition of N-terminal GST-fused full length human QIK (1 to 926 residues) expressed in baculovirus expression system using AMARA peptide as substrate at 1 uM in presence of ATP by Mobility shift assay
[19] = target: Ribosomal protein S6 kinase alpha-1 (Homo sapiens) (UniProt Q15418); experiment: Inhibition of N-terminal GST-fused human full length RSK1 (1 to 735 residues) expressed in baculovirus expression system using S6K peptide(N-FL) as substrate at 1 uM in presence of ATP by Mobility shift assay
[20] = target: Ribosomal protein S6 kinase alpha-3 (Homo sapiens) (UniProt P51812); experiment: Inhibition of N-terminal GST-fused human full length RSK2 (1 to 740 residues) expressed in baculovirus expression system using S6K peptide(N-FL) as substrate at 1 uM in presence of ATP by Mobility shift assay
[21] = target: Serine/threonine-protein kinase TBK1 (Homo sapiens) (UniProt Q9UHD2); experiment: Inhibition of N-terminal GST-fused full length human TBK1 (1 to 729 residues) expressed in baculovirus expression system using CKtide as substrate at 1 uM in presence of ATP by Mobility shift assay
[22] = target: Serine/threonine-protein kinase WNK2 (Homo sapiens) (UniProt Q9Y3S1); experiment: Inhibition of N-terminal GST-fused human WNK2 catalytic domain (166 to 489 residues) expressed in baculovirus expression system using SPAKtide as substrate at 1 uM in presence of ATP by Mobility shift assay

Glycogen synthase kinase-3 beta (Homo sapiens), sequence (P49841 whole entry, looked up, the tested form may be a part): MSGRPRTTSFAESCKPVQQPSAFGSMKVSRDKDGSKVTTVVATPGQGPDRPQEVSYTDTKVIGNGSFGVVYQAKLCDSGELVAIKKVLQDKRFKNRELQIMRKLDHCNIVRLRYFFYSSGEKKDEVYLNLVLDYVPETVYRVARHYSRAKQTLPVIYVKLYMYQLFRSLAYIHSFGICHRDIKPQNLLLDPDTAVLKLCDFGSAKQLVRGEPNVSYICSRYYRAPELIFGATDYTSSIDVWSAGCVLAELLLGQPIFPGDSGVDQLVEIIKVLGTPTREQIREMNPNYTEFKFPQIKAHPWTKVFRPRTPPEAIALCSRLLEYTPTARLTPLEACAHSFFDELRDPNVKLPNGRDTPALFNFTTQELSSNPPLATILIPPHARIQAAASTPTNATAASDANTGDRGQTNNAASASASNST
Serine/threonine-protein kinase Nek9 (Homo sapiens), sequence (Q8TD19 whole entry, the tested form may be a part): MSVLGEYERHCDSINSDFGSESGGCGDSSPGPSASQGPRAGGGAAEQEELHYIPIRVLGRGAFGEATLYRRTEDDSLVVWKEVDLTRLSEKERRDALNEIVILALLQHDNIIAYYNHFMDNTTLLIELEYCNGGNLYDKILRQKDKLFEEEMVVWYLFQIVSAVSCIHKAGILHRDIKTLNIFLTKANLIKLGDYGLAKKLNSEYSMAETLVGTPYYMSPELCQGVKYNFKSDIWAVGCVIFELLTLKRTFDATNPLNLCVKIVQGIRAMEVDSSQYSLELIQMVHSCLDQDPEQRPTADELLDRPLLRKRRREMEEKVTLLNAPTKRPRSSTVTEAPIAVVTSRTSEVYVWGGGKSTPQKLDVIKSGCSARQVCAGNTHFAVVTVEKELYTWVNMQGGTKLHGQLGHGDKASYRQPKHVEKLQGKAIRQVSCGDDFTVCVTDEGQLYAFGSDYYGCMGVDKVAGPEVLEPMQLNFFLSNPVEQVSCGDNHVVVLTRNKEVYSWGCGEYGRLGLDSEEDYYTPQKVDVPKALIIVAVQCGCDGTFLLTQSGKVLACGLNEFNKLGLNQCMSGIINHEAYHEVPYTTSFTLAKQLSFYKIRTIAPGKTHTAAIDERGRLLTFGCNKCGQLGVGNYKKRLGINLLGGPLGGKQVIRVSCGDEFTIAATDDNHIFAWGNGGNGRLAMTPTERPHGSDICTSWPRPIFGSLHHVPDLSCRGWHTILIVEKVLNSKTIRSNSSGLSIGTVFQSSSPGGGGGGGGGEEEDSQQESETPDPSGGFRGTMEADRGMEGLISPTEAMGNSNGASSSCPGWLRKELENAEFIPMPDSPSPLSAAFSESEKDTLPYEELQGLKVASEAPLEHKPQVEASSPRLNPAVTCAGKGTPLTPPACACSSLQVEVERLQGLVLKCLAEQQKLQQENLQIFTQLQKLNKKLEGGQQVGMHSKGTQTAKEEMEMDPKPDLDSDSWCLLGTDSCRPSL
Non-receptor tyrosine-protein kinase TNK1 (Homo sapiens), sequence (Q13470 whole entry, the tested form may be a part): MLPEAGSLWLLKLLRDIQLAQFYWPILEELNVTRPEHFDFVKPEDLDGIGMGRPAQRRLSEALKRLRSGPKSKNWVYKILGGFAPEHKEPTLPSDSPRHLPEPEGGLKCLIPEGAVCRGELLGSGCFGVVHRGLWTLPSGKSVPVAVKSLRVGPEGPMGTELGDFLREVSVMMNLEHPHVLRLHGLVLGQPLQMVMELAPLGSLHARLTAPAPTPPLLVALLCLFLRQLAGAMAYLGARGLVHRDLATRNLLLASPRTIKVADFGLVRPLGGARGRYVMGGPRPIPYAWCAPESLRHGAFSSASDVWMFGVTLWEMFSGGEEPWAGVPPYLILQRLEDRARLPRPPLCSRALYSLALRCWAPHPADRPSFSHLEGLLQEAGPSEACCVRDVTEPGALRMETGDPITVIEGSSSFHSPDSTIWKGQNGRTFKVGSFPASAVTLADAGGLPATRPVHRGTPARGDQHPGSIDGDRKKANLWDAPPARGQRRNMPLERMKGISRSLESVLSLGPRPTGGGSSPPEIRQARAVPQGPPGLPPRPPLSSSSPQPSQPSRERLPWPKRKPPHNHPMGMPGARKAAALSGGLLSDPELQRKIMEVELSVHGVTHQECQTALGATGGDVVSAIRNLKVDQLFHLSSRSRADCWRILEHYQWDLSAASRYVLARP
Ephrin type-B receptor 1 (Homo sapiens), sequence (P54762 whole entry, the tested form may be a part): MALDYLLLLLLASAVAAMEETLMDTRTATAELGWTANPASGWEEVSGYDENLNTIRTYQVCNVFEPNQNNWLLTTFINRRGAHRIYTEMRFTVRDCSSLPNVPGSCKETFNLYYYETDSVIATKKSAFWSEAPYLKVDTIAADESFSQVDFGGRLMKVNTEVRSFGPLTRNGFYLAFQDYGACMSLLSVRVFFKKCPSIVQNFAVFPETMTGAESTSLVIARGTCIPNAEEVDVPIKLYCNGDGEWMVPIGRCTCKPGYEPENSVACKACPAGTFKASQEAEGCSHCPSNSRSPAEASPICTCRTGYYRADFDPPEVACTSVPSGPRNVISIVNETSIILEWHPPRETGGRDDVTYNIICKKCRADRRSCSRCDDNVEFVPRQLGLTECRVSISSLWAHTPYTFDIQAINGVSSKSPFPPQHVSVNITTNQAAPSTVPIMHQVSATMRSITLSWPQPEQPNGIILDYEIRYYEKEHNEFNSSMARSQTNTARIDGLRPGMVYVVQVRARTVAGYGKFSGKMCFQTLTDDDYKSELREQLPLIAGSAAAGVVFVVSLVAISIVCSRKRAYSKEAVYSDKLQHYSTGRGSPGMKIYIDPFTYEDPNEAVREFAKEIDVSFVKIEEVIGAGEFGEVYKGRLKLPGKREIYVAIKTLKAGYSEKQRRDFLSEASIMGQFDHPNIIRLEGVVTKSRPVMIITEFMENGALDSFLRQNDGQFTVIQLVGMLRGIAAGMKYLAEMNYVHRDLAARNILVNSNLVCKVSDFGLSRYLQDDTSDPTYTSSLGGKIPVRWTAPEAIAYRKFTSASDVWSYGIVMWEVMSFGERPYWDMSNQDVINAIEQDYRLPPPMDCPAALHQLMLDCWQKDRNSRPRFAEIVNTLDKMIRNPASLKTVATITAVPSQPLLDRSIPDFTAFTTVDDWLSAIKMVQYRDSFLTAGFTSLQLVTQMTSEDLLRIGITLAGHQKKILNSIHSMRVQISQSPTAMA
Casein kinase I isoform delta (Homo sapiens), sequence (P48730 whole entry, looked up, the tested form may be a part, canonical isoform): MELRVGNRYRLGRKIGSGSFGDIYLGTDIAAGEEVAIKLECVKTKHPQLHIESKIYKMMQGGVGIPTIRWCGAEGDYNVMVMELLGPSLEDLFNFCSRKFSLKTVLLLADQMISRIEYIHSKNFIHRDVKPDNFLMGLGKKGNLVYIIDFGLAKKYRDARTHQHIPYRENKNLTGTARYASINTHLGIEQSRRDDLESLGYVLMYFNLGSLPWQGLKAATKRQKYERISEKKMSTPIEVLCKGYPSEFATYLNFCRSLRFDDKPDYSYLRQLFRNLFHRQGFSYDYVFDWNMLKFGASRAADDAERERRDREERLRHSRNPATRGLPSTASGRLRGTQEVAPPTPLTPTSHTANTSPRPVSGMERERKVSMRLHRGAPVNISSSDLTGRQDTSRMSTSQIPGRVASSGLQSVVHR
Mitogen-activated protein kinase 10 (Homo sapiens), sequence (P53779 whole entry, the tested form may be a part): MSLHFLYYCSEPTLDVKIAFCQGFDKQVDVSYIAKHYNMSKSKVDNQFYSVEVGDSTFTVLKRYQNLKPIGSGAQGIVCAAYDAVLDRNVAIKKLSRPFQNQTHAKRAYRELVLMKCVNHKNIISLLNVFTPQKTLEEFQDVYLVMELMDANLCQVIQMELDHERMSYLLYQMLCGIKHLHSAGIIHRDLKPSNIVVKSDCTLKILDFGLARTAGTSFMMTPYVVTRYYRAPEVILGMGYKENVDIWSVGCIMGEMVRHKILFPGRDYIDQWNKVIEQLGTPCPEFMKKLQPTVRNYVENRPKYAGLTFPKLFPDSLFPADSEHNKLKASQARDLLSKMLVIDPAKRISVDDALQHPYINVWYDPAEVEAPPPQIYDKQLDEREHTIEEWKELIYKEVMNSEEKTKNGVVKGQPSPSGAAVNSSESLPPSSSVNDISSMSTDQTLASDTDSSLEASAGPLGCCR
Macrophage colony-stimulating factor 1 receptor (Homo sapiens), sequence (P07333 whole entry, the tested form may be a part): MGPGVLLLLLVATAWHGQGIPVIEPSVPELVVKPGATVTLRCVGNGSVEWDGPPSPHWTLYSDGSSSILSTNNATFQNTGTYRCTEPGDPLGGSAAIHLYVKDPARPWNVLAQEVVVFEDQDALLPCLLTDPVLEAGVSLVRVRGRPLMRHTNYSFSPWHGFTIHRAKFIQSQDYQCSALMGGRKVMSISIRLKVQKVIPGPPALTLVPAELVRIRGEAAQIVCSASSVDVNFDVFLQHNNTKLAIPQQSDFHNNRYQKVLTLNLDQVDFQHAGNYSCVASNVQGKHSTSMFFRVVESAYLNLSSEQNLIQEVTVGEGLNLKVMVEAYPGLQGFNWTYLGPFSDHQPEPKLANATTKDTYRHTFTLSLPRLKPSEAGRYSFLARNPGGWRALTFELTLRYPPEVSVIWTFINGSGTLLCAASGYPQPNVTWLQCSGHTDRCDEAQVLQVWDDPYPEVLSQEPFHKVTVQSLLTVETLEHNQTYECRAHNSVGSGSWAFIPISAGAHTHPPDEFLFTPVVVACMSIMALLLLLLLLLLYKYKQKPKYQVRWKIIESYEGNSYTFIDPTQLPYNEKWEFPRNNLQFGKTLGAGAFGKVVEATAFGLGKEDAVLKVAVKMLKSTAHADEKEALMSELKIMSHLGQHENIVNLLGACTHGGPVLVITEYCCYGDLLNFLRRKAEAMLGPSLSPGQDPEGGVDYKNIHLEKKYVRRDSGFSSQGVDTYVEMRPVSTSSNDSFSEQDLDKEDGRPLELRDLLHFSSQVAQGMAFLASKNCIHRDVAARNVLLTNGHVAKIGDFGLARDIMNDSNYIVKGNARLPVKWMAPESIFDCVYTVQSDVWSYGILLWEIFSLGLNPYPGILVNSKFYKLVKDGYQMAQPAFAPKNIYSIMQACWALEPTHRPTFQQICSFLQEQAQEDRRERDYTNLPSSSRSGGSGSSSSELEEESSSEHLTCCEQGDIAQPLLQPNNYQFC

Cc1cc(C)c(CNC(=O)c2cc(Cl)c3c(c2C)O[C@@](C)([C@H]2CC[C@H](N(C)C)CC2)O3)c(=O)[nH]1 [VALEMETOSTAT]
inhibition [1]: -3.4%
inhibition [2]: 1.3%
inhibition [3]: -6.8%
inhibition [4]: -0.7%
inhibition [5]: -6.8%
inhibition [6]: -4.5%
inhibition [7]: -2.1%
inhibition [8]: -1.8%
inhibition [9]: -3.8%
inhibition [10]: -9.8%
inhibition [11]: -7.1%
inhibition [12]: -5.8%
inhibition [13]: 0.4%
inhibition [14]: -1.9%
inhibition [15]: 1.6%
inhibition [16]: -1.9%
inhibition [17]: 1.8%
inhibition [18]: -1.9%
inhibition [19]: -0.2%
inhibition [20]: -0.5%
inhibition [21]: -2.6%
inhibition [22]: -3.7%

Cc1cc(C)c(CNC(=O)c2cc(Br)c3c(c2C)O[C@@](C)([C@H]2CC[C@H](N(C)C)CC2)O3)c(=O)[nH]1
inhibition [1]: -2.7%
inhibition [2]: -0.4%
inhibition [3]: -3.4%
inhibition [4]: -1.2%
inhibition [5]: -4.6%
inhibition [6]: -1.4%
inhibition [7]: 19.9%
inhibition [8]: 0.5%
inhibition [9]: -3%
inhibition [10]: 2.7%
inhibition [11]: -3.3%
inhibition [12]: -2.9%
inhibition [13]: 1.4%
inhibition [14]: -6.2%
inhibition [15]: 2.8%
inhibition [16]: -3.3%
inhibition [17]: 6.9%
inhibition [18]: -0.5%
inhibition [19]: -6.4%
inhibition [20]: -4%
inhibition [21]: -4.6%
inhibition [22]: -2.1%
